Test results as given in publication PMC6150024, “In Vitro Evaluation of Cytotoxicity and Permeation Study on Lysine- and Arginine-Based Lipopeptides with Proven Antimicrobial Activity” (Molecules : A Journal of Synthetic Chemistry and Natural …, 2017).
In brackets after ≈: the same amount, converted by molar mass. Where two headings read alike, the source gives them in different places. Residues, ends and D or L forms follow the SMILES beside them. *: point of attachment. Palmitoyl = CCCCCCCCCCCCCCCC(=O)*

Assays:
[1] = assay type: physicochemical
Description: (§1) The compounds were dissolved in a mixture of dimethyl sulphoxide (DMSO) and phosphate buffer (PBS). […] MIC was determined by the serial dilution method on polystyrene 96-well plates with Mueller–Hinton II broth (MHB II) for reference bacterial strains: Staphylococcus aureus (ATCC 25923) and Escherichia coli (ATCC 25922), while for Candida albicans (ATCC 10231), the Sabouraud dextrose broth was applied. The microorganisms were obtained from the Polish Collection of Microorganisms (Wroclaw, Poland). Bacteria were cultured at 37 °C under aerobic conditions overnight in Brain Heart Infusion broth, centrifuged at 1000 rpm for 8 min, washed thrice with PBS and resuspended in MHB II. Candida albicans was cultured in Sabouraud dextrose broth for 48 h at 27 °C under aerobic conditions, centrifuged at 1000 rpm for 8 min, washed thrice with PBS and resuspended in Sabouraud dextrose broth. Bacterial (5 × 10^5 CFU/mL) and fungal (5 × 10^4 CFU/mL) suspensions were exposed to lipopeptides applied at graded concentrations (range 1–512 mg/L) for 18 h at 37 °C under aerobic conditions (bacteria) and 48 h at 27 °C under aerobic conditions (fungi). MIC was taken as the lowest concentration at which no visible growth of bacteria/fungi was observed. MBC and MFC were determined using MH II agar and Sabouraud Dextrose agar, for bacteria and fungi respectively. The contents of wells with MICs and two subsequent higher concentrations were transferred to agar plates and cultivated for 18 h at 37 °C under aerobic conditions (bacteria) and 48 h at 27 °C under aerobic conditions (fungi). The MBC and MFC were taken as the lowest concentrations at which no colony forming units were found. All tests were performed in triplicate.

[2] = tested on: Candida albicans (ATCC 10231); parameters: method as in 2 sources, ref 11 = [11]; PMID 28203232; doi:10.3389/fmicb.2017.00123; 11. Greber K.E. Dawgul M. Kamysz W. Sawicki W. Cationic net charge and counter ion type as antimicrobial activity determinant factors of short lipopeptides Front. Microbiol. 2017 8 1 10 10.3389/fmicb. ||| ref 12 = [12]; PMID 24748099; doi:10.1007/s00726-014-1744-9; 12. Greber K.E. Dawgul M. Kamysz W. Sawicki W. Łukasiak J. Biological and surface-active properties of double-chain cationic amino acid-based surfactants Amino Acids 2014 46 1893 1898 10.1007/s00726-0; conditions: cited from earlier work; for MIC C. albicans: ATCC 10231, serial dilution; for MFC C. albicans: ATCC 10231
human keratinocytes = conditions: cited from earlier work
Excerpt: (§2) The results of the MTT assay obtained in this study indicate high toxicity of lipopeptides containing one palmitic acid chain. This contradicts the previously advanced hypotheses about the selectivity of antimicrobial peptides. According to some authors, peptides designed based on naturally occurring compounds in human organisms are expected to be safe to human cells and their selectivity results from the presence of cholesterol and arrangement of lipids in the eukaryotic cell membrane. […] In the previou ...

[3] = tested on: Escherichia coli (ATCC 25922); parameters: method as in 2 sources, ref 11 = [11]; PMID 28203232; doi:10.3389/fmicb.2017.00123; 11. Greber K.E. Dawgul M. Kamysz W. Sawicki W. Cationic net charge and counter ion type as antimicrobial activity determinant factors of short lipopeptides Front. Microbiol. 2017 8 1 10 10.3389/fmicb. ||| ref 12 = [12]; PMID 24748099; doi:10.1007/s00726-014-1744-9; 12. Greber K.E. Dawgul M. Kamysz W. Sawicki W. Łukasiak J. Biological and surface-active properties of double-chain cationic amino acid-based surfactants Amino Acids 2014 46 1893 1898 10.1007/s00726-0; conditions: cited from earlier work; for MIC E. coli: ATCC 25922, serial dilution; for MBC E. coli: ATCC 25922
HaCaT keratinocytes = assay type: cell-based, human
Description: HaCaT cells were obtained from American Type Culture Collection (ATCC). Cells were cultivated in Dulbecco’s modified Eagle Medium (Invitrogen) with 10% fetal bovine serum in humidified incubator at […] in 5% CO2 and cultured in 96-well plates and allowed to grow to 60–70% confluence prior to the start of the experiments.
The MTT assay is a colorimetric technique for assessing cell metabolic activity based on NAD(P)H-dependent cellular oxidoreductase enzymes activity that, under defined conditions, reflects the number of viable cells present. Viable cells reduce the tetrazolium dye MTT 3-(4,5-dimethylthiazol-2-yl)-2,5-diphenyltetrazolium bromide to its insoluble formazan, which has a purple colour. The colour intensity reflects the number of live cells and can be measured spectrophotometrically. Briefly, one day after culturing 500 cells per well, different concentrations of compounds were applied. After a 24-h incubation with the specified compounds, a medium containing 1 mg/mL MTT was added to the cells (HaCaT keratinocytes) up to a final concentration of 0.5 mg/mL and incubated at 37 °C for 4 h. The medium was then aspired, and the formazan product was solubilized with DMSO. The absorbance at 630 nm (background absorbance) was subtracted and absorbance measured at 570 nm for each well. There were 6 replicates for each tested concentration. All experiments were repeated at least twice. The resulting IC50 values were calculated with a GraFit 7 software (v. 7.0, Erithacus, Berkley, CA, USA).

[4] = tested on: Staphylococcus aureus (ATCC 25923); parameters: method as in 2 sources, ref 11 = [11]; PMID 28203232; doi:10.3389/fmicb.2017.00123; 11. Greber K.E. Dawgul M. Kamysz W. Sawicki W. Cationic net charge and counter ion type as antimicrobial activity determinant factors of short lipopeptides Front. Microbiol. 2017 8 1 10 10.3389/fmicb. ||| ref 12 = [12]; PMID 24748099; doi:10.1007/s00726-014-1744-9; 12. Greber K.E. Dawgul M. Kamysz W. Sawicki W. Łukasiak J. Biological and surface-active properties of double-chain cationic amino acid-based surfactants Amino Acids 2014 46 1893 1898 10.1007/s00726-0; conditions: cited from earlier work; for MIC S. aureus: ATCC 25923, serial dilution; for MBC S. aureus: ATCC 25923
[5] = tested on: Candida albicans (ATCC 10231); assay type: cell-based; conditions: ATCC 10231, 48 h
Description: as §1

[6] = tested on: Staphylococcus aureus (ATCC 25923); assay type: cell-based; conditions: for MBC S. aureus / MIC S. aureus: ATCC 25923, 18 h
Description: as §1

[7] = tested on: Escherichia coli (ATCC 25922); assay type: cell-based; conditions: for MBC E. coli / MIC E. coli: ATCC 25922, 18 h
Description: as §1

human red blood cells = conditions: cited from earlier work
Excerpt: as §2

[8] = MTT assay, 24 h exposure, 6 replicates per concentration, experiments repeated at least twice
[9] = classification of antimicrobial peptides from patent

Compound	Concentration at which solutions were obtained [1] [µg/mL]	IC50 ± SD on HaCaT keratinocytes (HaCaT keratinocytes; 24 h)	MFC C. albicans [5] [µg/mL]	MIC C. albicans [5] [µg/mL]	MBC S. aureus [6] [µg/mL]	MIC S. aureus [6] [µg/mL]	MBC E. coli [7] [µg/mL]	MIC E. coli [7] [µg/mL]	also measured
CCCCCCCCCCCCCCCC(=O)N[C@@H](CCCCN)C(=O)N[C@@H](CCCCN)C(N)=O [Lipopeptide C16-KK-NH2]	512	1.8 ± 0.2 mg/L (≈ 3.52 µM)							MIC C. albicans ([2]; Table 1 ref 11): 128 µg/mL (≈ 250 µM); MFC C. albicans ([2]; Table 1 ref 11): 128 µg/mL (≈ 250 µM); Concentration with negative influence on proliferation and viability of human keratinocytes (human keratinocytes): ≥ 1 µg/mL; MIC E. coli ([3]; Table 1 ref 11): 8 µg/mL (≈ 15.6 µM); MBC E. coli ([3]; Table 1 ref 11): 8 µg/mL (≈ 15.6 µM); MIC S. aureus ([4]; Table 1 ref 11): 4 µg/mL (≈ 7.82 µM); MBC S. aureus ([4]; Table 1 ref 11): 4 µg/mL (≈ 7.82 µM)
CCCCCCCCCCCCCCCC(=O)N[C@@H](CCCCN)C(=O)N[C@@H](CCCCN)C(=O)N[C@@H](CCCCN)C(N)=O [Lipopeptide C16-KKK-NH2]	512	3.2 ± 0.1 mg/L (≈ 5 µM)							MIC C. albicans ([2]; Table 1 ref 11): 128 µg/mL (≈ 200 µM); MFC C. albicans ([2]; Table 1 ref 11): 128 µg/mL (≈ 200 µM); MIC E. coli ([3]; Table 1 ref 11): 8 µg/mL (≈ 12.5 µM); MBC E. coli ([3]; Table 1 ref 11): 16 µg/mL (≈ 25 µM); MIC S. aureus ([4]; Table 1 ref 11): 4 µg/mL (≈ 6.25 µM); MBC S. aureus ([4]; Table 1 ref 11): 8 µg/mL (≈ 12.5 µM)
CCCCCCCCCCCCCCCC(=O)N[C@@H](CCCCN)C(=O)N[C@@H](CCCNC(=N)N)C(=O)N[C@@H](CCCCN)C(N)=O [Lipopeptide C16-KRK-NH2] (Palmitoyl-Lys-Arg-Lys-NH2)	512	2.3 ± 0.4 mg/L (≈ 3.44 µM)	256 (≈ 383 µM)	128 (≈ 192 µM)	16 (≈ 24 µM)	4 (≈ 5.99 µM)	16 (≈ 24 µM)	8 (≈ 12 µM)	
CCCCCCCCCCCCCCCC(=O)N[C@@H](CCCCN)C(=O)NCCCC[C@H](N)C(N)=O [Lipopeptide C16-KεK-NH2]		7.4 ± 0.9 mg/L (≈ 14.5 µM)	256 (≈ 500 µM)	128 (≈ 250 µM)	8 (≈ 15.6 µM)	8 (≈ 15.6 µM)	32 (≈ 62.5 µM)	16 (≈ 31.3 µM)	
CCCCCCCCCCCCCCCC(=O)N[C@@H](CCCNC(=N)N)C(=O)N[C@@H](CCCNC(=N)N)C(N)=O [Lipopeptide C16-RR-NH2] (Palmitoyl-Arg-Arg-NH2)		1.9 ± 0,3 mg/L	256 (≈ 451 µM)	128 (≈ 225 µM)	8 (≈ 14.1 µM)	8 (≈ 14.1 µM)	16 (≈ 28.2 µM)	16 (≈ 28.2 µM)	
CCCCCCCCCCCCCCCC(=O)N[C@@H](CCCNC(=N)N)C(=O)N[C@@H](CCCNC(=N)N)C(=O)N[C@@H](CCCNC(=N)N)C(N)=O [Lipopeptide C16-RRR-NH2] (Palmitoyl-Arg-Arg-Arg-NH2)		3.2 ± 1.4 mg/L (≈ 4.42 µM)	256 (≈ 354 µM)	128 (≈ 177 µM)	4 (≈ 5.52 µM)	2 (≈ 2.76 µM)	16 (≈ 22.1 µM)	16 (≈ 22.1 µM)	
(C10)2-KKKK-NH2									MIC C. albicans ([2]; Table 1 ref 12): 128 µg/mL; MFC C. albicans ([2]; Table 1 ref 12): 256 µg/mL; Toxicity towards human red blood cells at microbiologically active concentrations (human red blood cells): non-toxic; MIC E. coli ([3]; Table 1 ref 12): 16 µg/mL; MBC E. coli ([3]; Table 1 ref 12): 16 µg/mL; IC50 ± SD on HaCaT keratinocytes (HaCaT keratinocytes; [8]): 49.4 ± 9.1 mg/L; MIC S. aureus ([4]; Table 1 ref 12): 8 µg/mL; MBC S. aureus ([4]; Table 1 ref 12): 16 µg/mL; Activity class against S. aureus by classification of Shai and Abrahami [6, 9]: highly active; Activity class against E. coli by classification of Shai and Abrahami [7, 9]: active
(C12)2-KKKK-NH2									MIC C. albicans ([2]; Table 1 ref 12): 256 µg/mL; MFC C. albicans ([2]; Table 1 ref 12): 512 µg/mL; MIC E. coli ([3]; Table 1 ref 12): 64 µg/mL; MBC E. coli ([3]; Table 1 ref 12): 64 µg/mL; IC50 ± SD on HaCaT keratinocytes (HaCaT keratinocytes; [8]): 42.1 ± 9.1 mg/L; MIC S. aureus ([4]; Table 1 ref 12): 16 µg/mL; MBC S. aureus ([4]; Table 1 ref 12): 32 µg/mL
